Assays:
[1] = Cytotoxicity against human NALM6 cells after 72 hrs by Cell-Titer Glo assay; assay type: functional, cell-based; conditions: NALM-6, 72 h
[2] = Cytotoxicity against human SEM cells after 72 hrs by Cell-Titer Glo assay; assay type: functional, cell-based
Jurkat = assay: Cytotoxicity against human Jurkat cells after 72 hrs by Cell-Titer Glo assay; assay type: functional, cell-based
Raji = assay: Cytotoxicity against human Raji cells after 72 hrs by Cell-Titer Glo assay; assay type: functional, cell-based
BJ = assay: Cytotoxicity against human BJ cells after 72 hrs by Cell-Titer Glo assay; assay type: cell-based
HEK293 = assay: Cytotoxicity against HEK293 cells after 72 hrs by Cell-Titer Glo assay; assay type: cell-based; conditions: Homo sapiens, HEK293, 72 h
HepG2 = assay: Cytotoxicity against human HepG2 cells after 72 hrs by Cell-Titer Glo assay; assay type: functional, cell-based; conditions: HepG2, 72 h

Compound | EC50 [1] [µM] | EC50 [2] [µM] | EC50 (Jurkat) [µM] | EC50 (Raji) [µM] | EC50 (BJ) [µM] | EC50 (HEK293) [µM] | EC50 (HepG2) [µM]
C=C[C@@](C)(/C=C/c1ccc(OCc2ccccc2)cc1)CCC=C(C)C | > 43.5 | > 36.6 | > 49 | > 26 | > 36.6 | > 36.6 | > 52.1
COc1ccc(/C=C/[C@@](C)(/C=C/c2ccc(O)c(/C=C/C(=O)c3ccccc3)c2)CCC=C(C)C)cc1 | > 43.5 | 30 | > 49 | > 26 | > 36.6 | > 36.6 | > 52.1
C=C[C@@](C)(/C=C/c1ccc(O)c(/C=C/C(=O)OCc2ccccc2)c1)CCC=C(C)C | > 43.5 | > 36.6 | > 49 | > 26 | > 36.6 | > 36.6 | > 52.1
C=C[C@@](C)(/C=C/c1ccc(O)c(/C=C/c2ccc(Cl)cc2)c1)CCC=C(C)C | > 43.5 | > 36.6 | > 49 | > 26 | > 36.6 | > 36.6 | > 52.1
C=C[C@@](C)(/C=C/c1ccc(O)c(/C=C/C#N)c1)CCC=C(C)C | > 43.5 | > 36.6 | > 49 | > 26 | > 36.6 | > 36.6 | > 52.1
C=C[C@@](C)(/C=C/c1ccc(O)c(/C=C/C(N)=O)c1)CCC=C(C)C | > 43.5 | > 36.6 | > 49 | > 26 | > 36.6 | > 36.6 | > 52.1
COc1ccc(/C=C/[C@@](C)(/C=C/c2ccc(O)c(/C=C/C(C)=O)c2)CCC=C(C)C)cc1 | > 43.5 | 8.67 | > 49 | > 26 | 12.3 | 14.6 | > 52.1
C=C[C@@](C)(/C=C/c1ccc(O)cc1)CC/C=C(C)/C=N/N | > 43.5 | > 36.6 | > 49 | > 26 | > 36.6 | > 36.6 | > 52.1
CCOC(=O)/C(C)=C/c1cc(/C=C/[C@](C)(/C=C/c2ccc(OC)cc2)CCC=C(C)C)ccc1O | > 43.5 | > 36.6 | > 49 | > 26 | > 36.6 | > 36.6 | > 52.1
C=C[C@@](C)(/C=C/c1ccc(O)c(CO)c1)CCC=C(C)C | 16.4 | > 36.6 | > 49 | > 26 | > 36.6 | > 36.6 | > 52.1
C=C[C@@](C)(/C=C/c1ccc(O)cc1)CC/C=C(C)/C=C/C(=O)OCC | 0.815 | > 36.6 | > 49 | > 26 | > 36.6 | > 36.6 | > 52.1
C=C[C@@](C)(/C=C/c1ccc(O)cc1)CCC1OC1(C)C (stereo partly drawn) | > 43.5 | > 36.6 | > 49 | > 22.6 | > 36.6 | > 36.6 | > 52.1
C=C[C@@](C)(/C=C/c1ccc(O)cc1)CC/C=C(\C)CO | > 43.5 | > 36.6 | > 49 | > 26 | > 36.6 | > 36.6 | > 52.1
CCOc1ccc(/C=C/[C@@](C)(/C=C/c2ccc(O)cc2)CCC=C(C)C)cc1 | > 43.5 | > 36.6 | > 49 | > 26 | > 36.6 | > 36.6 | > 52.1
C=C[C@@](C)(/C=C/c1ccc(OS(=O)(=O)c2ccc(C)cc2)cc1)CCC=C(C)C | > 43.5 | > 43.5 | > 49 | > 26 | > 36.6 | > 36.6 | > 52.1
COc1ccc(/C=C/[C@@](C)(/C=C/c2ccc(O)c(/C=C/C#N)c2)CCC=C(C)C)cc1 | 16.5 | 4.54 | > 49 | > 26 | > 23.7 | > 36.6 | > 26
C=C[C@@](C)(/C=C/c1ccc(O)c(/C=C/C(=O)O)c1)CCC=C(C)C | > 43.5 | > 36.6 | > 49 | > 26 | > 36.6 | > 36.6 | > 52.1
C=C[C@@](C)(/C=C/c1ccc(O)c(C=O)c1)CCC=C(C)C | 11.2 | 8.51 | > 49 | > 26 | > 36.6 | > 36.6 | > 52.1
COc1ccc(/C=C/[C@@](C)(/C=C/c2ccc(O)c(/C=C/C(=O)OC(C)(C)C)c2)CCC=C(C)C)cc1 | > 43.5 | > 36.6 | > 49 | > 26 | > 36.6 | > 36.6 | > 52.1

— ChEMBL document CHEMBL3779792, “Anti-proliferative evaluation of monoterpene derivatives against leukemia” (Eur J Med Chem, 2016)
